According to patent US20260294995A1, “COMPOSITION FOR ORAL USE WITH HMG-COA REDUCTASE ENZYME INHIBITING ACTIVITY” (DIFASS INTERNATIONAL S.P.A., priority 2023, published 2026):
Values belong to the compound of their own block, whether it stands above or below them.

Legend:
HMG-CoA reductase [1] = biological target: T1, HMG-CoA reductase (Homo sapiens, UniProt P04035); assay: HMG-CoA reductase inhibition, spectrophotometric (absorbance at 340 nm, oxidation of NADPH); assay type: biochemical; conditions: for Percentage inhibition HMGR: positive control
T1 construct: oxidation of NADPH by the catalytic subunit of HMG-CoA reductase; purchased
T1 sequence (P04035 426-888 limits assumed): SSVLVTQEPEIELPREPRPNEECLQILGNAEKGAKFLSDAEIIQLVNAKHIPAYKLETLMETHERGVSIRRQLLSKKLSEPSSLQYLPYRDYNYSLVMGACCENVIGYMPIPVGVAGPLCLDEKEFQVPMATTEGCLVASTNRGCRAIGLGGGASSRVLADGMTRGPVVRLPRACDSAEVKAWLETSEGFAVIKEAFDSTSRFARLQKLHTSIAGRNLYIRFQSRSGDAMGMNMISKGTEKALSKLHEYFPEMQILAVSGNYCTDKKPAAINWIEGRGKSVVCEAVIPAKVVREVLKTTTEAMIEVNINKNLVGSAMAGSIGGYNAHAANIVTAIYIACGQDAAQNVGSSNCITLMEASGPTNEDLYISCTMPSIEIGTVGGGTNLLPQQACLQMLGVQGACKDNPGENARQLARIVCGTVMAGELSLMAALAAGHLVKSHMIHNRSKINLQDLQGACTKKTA
Protocol: The screening was performed with an analysis kit that evaluates inhibition of HMG-CoA reductase. The assay was based on spectrophotometric measurement of the reduction of absorbance at 340 nm, which represents oxidation of NADPH by the catalytic subunit of HMG-CoA reductase in the presence of the HMG-COA substrate. The reaction is as follows: HMG-CoA+2NADPH+2H^+ ? mevalonate+2NADP^++CoA-SH. Modulation of the activity of the enzyme, and in particular its inhibition, was calculated as % variation relative to the activity measured under the control condition, i.e. in the absence of any inhibitor. The biochemical system was verified with the use of a positive control, pravastatin, at the doses of 212.5 mg (100 mM), 80 mg, 40 mg and 20 mg.
A first test session was conducted with pravastatin as positive control at the theoretical concentration calculated as administration dose in the systemic circulation (5 L, mean blood volume of an adult weighing about 70 kg);
Each test was conducted in triplicate, and the compounds were tested at different concentrations. […]

[2] = 2022 meta-analysis; dose an essential factor; cited from earlier work
[3] = 250 mg daily for three months, patients with metabolic syndrome; cited from earlier work
HMG-CoA reductase [4] = biological target: T2, HMG-CoA reductase (Homo sapiens, UniProt P04035); conditions: 10 μg/mL; compared with pravastatin; cited from earlier work
T2 sequence (P04035 1-888): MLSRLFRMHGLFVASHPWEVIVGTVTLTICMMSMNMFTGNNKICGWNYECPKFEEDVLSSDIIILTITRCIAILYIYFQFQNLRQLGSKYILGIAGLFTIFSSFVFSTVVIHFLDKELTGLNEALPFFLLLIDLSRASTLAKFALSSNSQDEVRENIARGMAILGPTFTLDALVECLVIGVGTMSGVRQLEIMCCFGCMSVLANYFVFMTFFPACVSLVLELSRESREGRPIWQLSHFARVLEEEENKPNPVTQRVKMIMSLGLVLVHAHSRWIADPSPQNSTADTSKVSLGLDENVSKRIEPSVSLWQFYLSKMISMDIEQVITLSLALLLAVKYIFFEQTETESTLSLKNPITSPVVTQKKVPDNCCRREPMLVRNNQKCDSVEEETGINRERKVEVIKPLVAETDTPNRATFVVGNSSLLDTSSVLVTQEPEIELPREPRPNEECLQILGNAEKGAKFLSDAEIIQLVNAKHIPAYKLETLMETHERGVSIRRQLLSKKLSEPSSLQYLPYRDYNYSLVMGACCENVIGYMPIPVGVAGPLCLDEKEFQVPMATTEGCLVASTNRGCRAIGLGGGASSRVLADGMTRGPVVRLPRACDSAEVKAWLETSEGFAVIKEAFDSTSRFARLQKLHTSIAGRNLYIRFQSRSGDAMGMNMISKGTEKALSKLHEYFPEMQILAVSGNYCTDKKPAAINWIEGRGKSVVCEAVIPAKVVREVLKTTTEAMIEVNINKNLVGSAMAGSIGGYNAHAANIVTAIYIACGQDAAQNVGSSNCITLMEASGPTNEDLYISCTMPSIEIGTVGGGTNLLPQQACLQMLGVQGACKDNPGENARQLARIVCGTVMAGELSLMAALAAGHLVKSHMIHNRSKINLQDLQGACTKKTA

[5] = oral doses from 100 mg to 2800 mg; cited from earlier work
HMG-CoA reductase [6] = biological target: T3, HMG-CoA reductase (Rattus norvegicus, UniProt P51639); conditions: 25 μM; glial cells; cited from earlier work
T3 construct: in an in vitro model with glial cells; host or cells: C6 glioma cells (endogenous enzyme, inferred)
T3 sequence (P51639 1-887): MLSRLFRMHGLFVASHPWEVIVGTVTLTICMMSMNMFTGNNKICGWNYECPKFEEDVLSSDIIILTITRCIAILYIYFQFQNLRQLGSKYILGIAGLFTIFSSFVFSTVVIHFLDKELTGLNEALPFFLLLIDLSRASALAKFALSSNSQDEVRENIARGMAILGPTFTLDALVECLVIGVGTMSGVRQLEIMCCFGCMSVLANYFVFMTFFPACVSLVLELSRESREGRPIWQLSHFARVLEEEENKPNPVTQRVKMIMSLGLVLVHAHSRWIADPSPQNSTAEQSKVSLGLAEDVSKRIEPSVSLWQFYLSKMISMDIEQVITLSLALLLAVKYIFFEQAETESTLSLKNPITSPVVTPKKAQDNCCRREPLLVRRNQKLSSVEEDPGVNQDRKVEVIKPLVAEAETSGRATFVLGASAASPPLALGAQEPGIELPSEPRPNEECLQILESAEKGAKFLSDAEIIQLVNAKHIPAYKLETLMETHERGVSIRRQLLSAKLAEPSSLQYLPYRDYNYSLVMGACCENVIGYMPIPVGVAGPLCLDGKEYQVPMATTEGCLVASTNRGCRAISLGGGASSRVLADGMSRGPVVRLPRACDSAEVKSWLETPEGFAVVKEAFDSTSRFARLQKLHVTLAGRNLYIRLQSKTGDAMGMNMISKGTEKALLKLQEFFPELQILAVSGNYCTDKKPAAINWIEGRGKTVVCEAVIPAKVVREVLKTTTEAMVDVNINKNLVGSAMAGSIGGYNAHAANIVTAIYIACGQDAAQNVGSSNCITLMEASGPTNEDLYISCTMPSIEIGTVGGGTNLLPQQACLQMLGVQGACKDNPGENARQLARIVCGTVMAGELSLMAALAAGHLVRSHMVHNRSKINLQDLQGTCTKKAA

HMG-COA reductase [7] = conditions: rat hepatocytes, in vitro; cited from earlier work

Percentage inhibition HMGR (HMG-CoA reductase [1]; 20 mg (theoretical concentration of dose in 5 L blood)): 56.3%
Percentage inhibition HMGR (HMG-CoA reductase [1]; 40 mg (theoretical concentration of dose in 5 L blood)): 68.9%
Percentage inhibition HMGR (HMG-CoA reductase [1]; 80 mg (theoretical concentration of dose in 5 L blood)): 85.9%
SMILES: CC[C@H](C)C(=O)O[C@H]1C[C@H](O)C=C2C=C[C@H](C)[C@H](CC[C@@H](O)C[C@@H](O)CC(=O)O)[C@H]21 [Pravastatin, pravastatin]

inhibition at 0.0102 µg/mL (HMG-CoA reductase [1]; Test 1, 0.0102 μg/ml, 1:200 dilution, oral dose 10 mg, read-out: Percentage inhibition HMGR): 0%
SMILES: Oc1ccc(C=Cc2cc(O)cc(O)c2)cc1 [Resveratrol, resveratrol]
total cholesterol and LDL cholesterol levels [2]: can be useful to reduce total cholesterol and LDL cholesterol levels
total cholesterol level [3]: reduces the total cholesterol level

SMILES: O=C(O)[C@H]1O[C@@H](Oc2cc3oc(-c4ccccc4)cc(=O)c3c(O)c2O)[C@H](O)[C@@H](O)[C@@H]1O [baicalin]
HMG-COA reductase inhibitory activity (HMG-CoA reductase [4]): lower than with pravastatin
proportionality in absorption depending on the oral dose [5]: did not indicate a proportionality in absorption

SMILES: OCCc1ccc(O)c(O)c1 [hydroxytyrosol]
reduction of HMG-COA reductase activity (HMG-CoA reductase [6]): 16%
synthesis of fatty acids and cholesterol (HMG-CoA reductase [6]): downregulating effect

SMILES: C/C=C1/[C@H](O[C@@H]2O[C@H](CO)[C@@H](O)[C@H](O)[C@H]2O)OC=C(C(=O)OC)[C@H]1CC(=O)OCCc1ccc(O)c(O)c1 [oleuropein]
activity of HMG-COA reductase (HMG-COA reductase [7]): reduces the activity of hydroxymethylglutaryl-CoA reductase
cholesterol synthesis (HMG-COA reductase [7]): reduction in cholesterol synthesis
